Experimental data from US6737383B1, “Herbicidal oxadiazolidines” (priority 1999, dated 2004).

Key:
cocklebur = experiment: Test B pre/postemergence cocklebur; format: in vivo, Xanthium strumarium
Outline: (§1)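 Test chemicals in a non-phytotoxic solvent mixture with surfactant were sprayed preemergence onto planted seeds and postemergence onto plants 2 to 18 cm tall (1- to 4-leaf stage). After twelve to sixteen days in a greenhouse, injury was visually rated against untreated controls from 0 (no effect) to 10 (complete control).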

wheat = experiment: Test B pre/postemergence wheat; format: in vivo, Triticum aestivum
Outline: as §1

velvetleaf = experiment: Test B pre/postemergence velvetleaf; format: in vivo, Abutilon theophrasti
Outline: as §1

crabgrass = experiment: Test B pre/postemergence crabgrass; format: in vivo, Digitaria sanguinalis
Outline: as §1

morningglory = experiment: Test B pre/postemergence morningglory; format: in vivo, Ipomoea hederacea
Outline: as §1

pigweed = experiment: Test B pre/postemergence pigweed; format: in vivo, Amaranthus retroflexus
Outline: as §1

surinam grass = experiment: Test B pre/postemergence surinam grass; format: in vivo, Brachiaria decumbens
Outline: as §1

soybean = experiment: Test B pre/postemergence soybean; format: in vivo, Glycine max
Outline: as §1

corn = experiment: Test B pre/postemergence corn; format: in vivo, Zea mays
Outline: as §1

giant foxtail = experiment: Test B pre/postemergence giant foxtail; format: in vivo, Setaria faberii
Outline: as §1

wild oat = experiment: Test B pre/postemergence wild oat; format: in vivo, Avena fatua
Outline: as §1

rape = experiment: Test B pre/postemergence rape; format: in vivo, Brassica napus
Outline: as §1

bedstraw = experiment: Test B pre/postemergence bedstraw; format: in vivo, Galium aparine
Outline: as §1

sugar beet = experiment: Test B pre/postemergence sugar beet; format: in vivo, Beta vulgaris
Outline: as §1

purple nutsedge = experiment: Test B pre/postemergence purple nutsedge; format: in vivo, Cyperus rotundus
Outline: as §1

blackgrass = experiment: Test B pre/postemergence blackgrass; format: in vivo, Alopecurus myosuroides
Outline: as §1

[1] = Postemergence, Rate 62 g/ha, scale 0 to 10, 0 is no effect, 10 is complete control
[2] = Postemergence, Rate 125 g/ha, scale of 0 to 10 where 0 is no effect and 10 is complete control
[3] = Preemergence, Rate 125 g/ha, scale of 0 to 10 where 0 is no effect and 10 is complete control
[4] = Preemergence, Rate 250 g/ha, scale 0 (no effect) to 10 (complete control)
[5] = Rate 62 g/ha, Preemergence, scale 0 to 10
[6] = Rate 250 g/ha, Postemergence, scale 0 to 10, 0 is no effect, 10 is complete control
[7] = Rate 500 g/ha, Postemergence, scale 0 to 10, 0 is no effect, 10 is complete control
[8] = Rate 500 g/ha, Preemergence, scale 0 to 10 (0 no effect, 10 complete control)

CC(C)N(C(=O)n1oc(=O)n(CC(F)F)c1=O)c1ccc(Cl)cc1 [Compound 745]
6: Velvetleaf plant response rating (velvetleaf; [8]) | Redroot pigweed plant response rating (pigweed; [7]) | B. signalgrass plant response rating (surinam grass; [6]) | B. signalgrass plant response rating (surinam grass; [7]) | Plant response rating, Wild oats (wild oat; [3]) | Plant response rating, Blackgrass (blackgrass; [3])
10: Plant response rating, Crabgrass (crabgrass; [3]) | Crabgrass plant response rating (crabgrass; [4]) | Crabgrass plant response rating (crabgrass; [8]) | Redroot pigweed plant response rating (pigweed; [4]) | Redroot pigweed plant response rating (pigweed; [8]) | B. signalgrass plant response rating (surinam grass; [4]) | B. signalgrass plant response rating (surinam grass; [8]) | Plant response rating, Giant foxtail (giant foxtail; [3]) | Giant foxtail plant response rating (giant foxtail; [4]) | Giant foxtail plant response rating (giant foxtail; [5]) | Giant foxtail plant response rating (giant foxtail; [8])
5: Redroot pigweed plant response rating (pigweed; [6]) | Soybean plant response rating (soybean; [6]) | Soybean plant response rating (soybean; [7]) | Plant response rating, Rape (rape; [3]) | Rape plant response rating (rape; [6]) | Bedstraw plant response rating (bedstraw; [4]) | Bedstraw plant response rating (bedstraw; [8]) | Nutsedge plant response rating (purple nutsedge; [8])
8: Morningglory plant response rating (morningglory; [7]) | B. signalgrass plant response rating (surinam grass; Preemergence, Rate 62 g/ha, scale of 0 to 10 where 0 is no effect and 10 is complete control) | Wild oats plant response rating (wild oat; [4]) | Wild oats plant response rating (wild oat; [8]) | Blackgrass plant response rating (blackgrass; [6])
4: Cocklebur plant response rating (cocklebur; [7]) | Velvetleaf plant response rating (velvetleaf; [4]) | Plant response rating, Crabgrass (crabgrass; [1]) | Crabgrass plant response rating (crabgrass; [2]) | Wild oats plant response rating (wild oat; [6]) | Wild oats plant response rating (wild oat; [7]) | Plant response rating, Sugarbeets (sugar beet; [3]) | Sugarbeets plant response rating (sugar beet; [4]) | Sugarbeets plant response rating (sugar beet; [6]) | Sugarbeets plant response rating (sugar beet; [7]) | Sugarbeets plant response rating (sugar beet; [8])
7: Velvetleaf plant response rating (velvetleaf; [7]) | Crabgrass plant response rating (crabgrass; [5]) | Redroot pigweed plant response rating (pigweed; [5]) | Rape plant response rating (rape; [4]) | Rape plant response rating (rape; [7]) | Rape plant response rating (rape; [8]) | Bedstraw plant response rating (bedstraw; [6])
3: Wheat plant response rating (wheat; [7]) | Velvetleaf plant response rating (velvetleaf; [6]) | Plant response rating, Morningglory (morningglory; [1]) | Morningglory plant response rating (morningglory; [2]) | Morningglory plant response rating (morningglory; [6]) | Morningglory plant response rating (morningglory; [8]) | Plant response rating, Soybean (soybean; [1]) | Soybean plant response rating (soybean; [2]) | Plant response rating, Blackgrass (blackgrass; [1]) | Blackgrass plant response rating (blackgrass; [2]) | Blackgrass plant response rating (blackgrass; [5])
0: Plant response rating, Cocklebur (cocklebur; [1]) | Cocklebur plant response rating (cocklebur; [2]) | Plant response rating, Cocklebur (cocklebur; [3]) | Cocklebur plant response rating (cocklebur; [4]) | Cocklebur plant response rating (cocklebur; [5]) | Cocklebur plant response rating (cocklebur; [6]) | Cocklebur plant response rating (cocklebur; [8]) | Plant response rating, Wheat (wheat; [1]) | Wheat plant response rating (wheat; [2]) | Plant response rating, Wheat (wheat; [3]) | Wheat plant response rating (wheat; [4]) | Wheat plant response rating (wheat; [5]) | Wheat plant response rating (wheat; [6]) | Wheat plant response rating (wheat; [8]) | Plant response rating, Velvetleaf (velvetleaf; [1]) | Velvetleaf plant response rating (velvetleaf; [2]) | Plant response rating, Velvetleaf (velvetleaf; [3]) | Velvetleaf plant response rating (velvetleaf; [5]) | Plant response rating, Morningglory (morningglory; [3]) | Morningglory plant response rating (morningglory; [4]) | Morningglory plant response rating (morningglory; [5]) | Plant response rating, B. signalgrass (surinam grass; [1]) | B. signalgrass plant response rating (surinam grass; [2]) | Plant response rating, Soybean (soybean; [3]) | Soybean plant response rating (soybean; [4]) | Soybean plant response rating (soybean; [5]) | Soybean plant response rating (soybean; [8]) | Plant response rating, Corn (corn; [1]) | Corn plant response rating (corn; [2]) | Plant response rating, Corn (corn; [3]) | Corn plant response rating (corn; [5]) | Corn plant response rating (corn; [6]) | Corn plant response rating (corn; [7]) | Plant response rating, Wild oats (wild oat; [1]) | Wild oats plant response rating (wild oat; [2]) | Plant response rating, Rape (rape; [1]) | Rape plant response rating (rape; [2]) | Rape plant response rating (rape; [5]) | Bedstraw plant response rating (bedstraw; [5]) | Sugarbeets plant response rating (sugar beet; [5]) | Plant response rating, Nutsedge (purple nutsedge; [1]) | Nutsedge plant response rating (purple nutsedge; [2]) | Nutsedge plant response rating (purple nutsedge; [4]) | Nutsedge plant response rating (purple nutsedge; [5]) | Nutsedge plant response rating (purple nutsedge; [6]) | Nutsedge plant response rating (purple nutsedge; [7])
9: Crabgrass plant response rating (crabgrass; [6]) | Crabgrass plant response rating (crabgrass; [7]) | Plant response rating, Redroot pigweed (pigweed; [3]) | Plant response rating, B. signalgrass (surinam grass; [3]) | Giant foxtail plant response rating (giant foxtail; [6]) | Giant foxtail plant response rating (giant foxtail; [7]) | Bedstraw plant response rating (bedstraw; [7]) | Blackgrass plant response rating (blackgrass; [4]) | Blackgrass plant response rating (blackgrass; [7]) | Blackgrass plant response rating (blackgrass; [8])
2: Plant response rating, Redroot pigweed (pigweed; [1]) | Redroot pigweed plant response rating (pigweed; [2]) | Corn plant response rating (corn; [4]) | Corn plant response rating (corn; [8]) | Plant response rating, Giant foxtail (giant foxtail; [1]) | Giant foxtail plant response rating (giant foxtail; [2]) | Wild oats plant response rating (wild oat; [5]) | Plant response rating, Sugarbeets (sugar beet; [1]) | Sugarbeets plant response rating (sugar beet; [2])
